Test results: patent publication US12377069B2, “Compounds, compositions, methods of using, and methods for preparing compounds” (UNIVERSITY OF LOUISVILLE RESEARCH FOUNDATION, INC., priority 2018, dated 2025)

Legend:
AhR^−/− mice = assay: TNBS-induced colitis in AhR^−/− mice; type: in vivo, mouse; conditions: 20 mg/kg every 12 h; for serum IL-6 in AhR^−/− mice / serum TNF-α in AhR^−/− mice / shortening of colon lengths in AhR^−/− mice: 60 h post TNBS
Description: FIG. 8: UroA/UAS03 exert beneficial activities through AhR-dependent pathways. (A-F) Colitis was induced using TNBS in C57BL/6 (WT) and AhR^−/− mice (n=4/group 7-8 week old age). Mice were treated with Veh or UroA/UAS03 (20 mg/kg bodyweight) every 12 h post TNBS administration and mice were euthanized at post 60 h TNBS administration. (A) TNBS-induced colitis experimental design and treatment regimen. (B) Percent body weight loss (No TNBS-Solid black line; Veh+TNBS− Solid red line; UroA+TNBS− Solid blue line; UAS03+TNBS− Solid purple line), (C) representative colon images, (D) colon lengths, (E) gut permeability, (F) serum levels of IL-6 and TNF-α were determined. Statistical analysis was performed (unpaired t-test) using Graphpad Prism software. Error bars, ±SEM ***p<0.001; **p<0.01 *p<0.05. (G) AhR-Nrf2 dependent tight junction protein regulation by UroA/UAS03. UroA/UAS03 (L:ligands) bind to AhR and activate its nuclear translocation to induce expression of Cyp1A1 and Nrf2. […] (H) LPS (50 ng/ml)-induced IL-6 levels were measured in the presence of Vehicle or UroA or UAS03 (0.1, 1, 10, 20, 30 and 50 μM) in bone marrow derived macrophages (BMDM) from wild type (WT), Nrf2^−/− and AhR^−/− mice. The data is representative of two independent experiments with triplicates. Statistical analysis was performed (unpaired t-test) using Graphpad Prism software. Error bars, ±SEM ***p<0.001; **p<0.01 *p<0.05.
2,4,6-Trinitrobenzenesulfonic acid (TNBS)-induced colitis: Male C57BL/6 or Nrf2^−/− mice (6-8 week old age mice) were anesthetized with ketamine/xylazine (100 mg/12.5 mg/kg IP) mixture and administered with single dose of TNBS (2.5 mg/mice; Sigma Aldrich, USA) in 50% ethanol. After administration of TNBS, mice were held upside down for 30-60 sec to ensure proper distribution of TNBS in the colon. Control group received 50% ethanol without TNBS. Mice with TNBS were randomly divided into three groups, viz. vehicle (0.25% sodium carboxymethylcellulose (CMC)), UroA and UAS03. UroA or UAS03 was resuspended in 0.25% sodium-CMC at desired concentrations. The mice were given orally Veh or UroA or UAS03 in 100 μl at desired concentrations (4 or 20 mg/kg/body weight). The treatment started after 12 hours of TNBS administration and every 12 hours thereafter up to 72 hours. The experiment was terminated post 60 h TNBS, where AhR^−/− mice were involved. In some experiments, we treated only once at post 12 h TNBS administration. TNBS administered and control mice were euthanized for tissue and plasma collection after 80 hours of TNBS/ethanol treatment. Mice were examined for colitis phenotype.

C57BL/6 mice [1] = assay: In vivo Evans Blue permeability assay (LPS); parameters: species or system mouse; conditions: LPS 100 μg i.p.; for LPS-induced TNF-α levels in serum and BAL fluid: 20 mg/kg; for tissue accumulation of Evans Blue (lung and liver): 20 mg/kg after 1 h and 18 h
Description: Acute intoxication of alcohol can induce microvasculature leakage as well as direct exposure to endothelium leads to disruption of endothelial integrity. […] In addition, increased endothelial permeability enhances the extravasation of immune cells into liver leading to increased inflammation. To examine the effect of UroA/UAS03 on endothelial cell permeability, we utilized in vivo Evans Blue permeability assay. Briefly, C57BL/6 mice (n=4/group) were given LPS (100 μg) i.p. followed by treatment with UAS03 or UroA (20 mg/kg) after 1 h and 18 h. Evans blue (i.v.) was given to mice (24 h post LPS treatment) and 30 min later mice were euthanized and the Evans Blue from lung and liver tissues was extracted using formamide. The levels of Evans Blue was determined by OD at 620 nm. […] To evaluate direct impact of UroA or UAS03 on endothelial barrier function, we used in vivo Miles assay to test blood vessel permeability. We used vascular endothelial growth factor (VEGF) as vasodilator. In this assay, C57BL/6 mice (n=3 per group) were given vehicle or UroA or UAS03 (20 mg/kg; oral gavage). After 3 h, Evans blue (100 μL of 1% solution) was administered i.v. followed by intra-dermal administration of VEGF (2.5 ng/mouse) or PBS (control). After 30 min, mice were euthanized and the levels of Evans Blue in skin tissue surrounding the injection site was extracted and estimated as described previously (FIG. 36C). […] To understand molecular mechanisms of UroA/UAS03 mediated endothelial barrier function, we tested the effects of these compounds in Human Umbilical Vein Endothelial Cells (HUVECs). Endotoxins or inflammatory mediators are responsible for decreasing the cell-cell and cell-matrix adhesion leading to increased barrier gaps and permeability. The VE-Cadherin (CDH5), an adherins junction (AJ) protein, can maintain the integrity of endothelial junctions through homotypic interactions with adjacent cell.

C57BL/6 mice [2] = assay: In vivo Miles assay (VEGF); conditions: 20 mg/kg oral gavage; VEGF 2.5 ng/mouse
Description: Acute intoxication of alcohol can induce microvasculature leakage as well as direct exposure to endothelium leads to disruption of endothelial integrity. […] In addition, increased endothelial permeability enhances the extravasation of immune cells into liver leading to increased inflammation. To examine the effect of UroA/UAS03 on endothelial cell permeability, we utilized in vivo Evans Blue permeability assay. Briefly, C57BL/6 mice (n=4/group) were given LPS (100 μg) i.p. followed by treatment with UAS03 or UroA (20 mg/kg) after 1 h and 18 h. Evans blue (i.v.) was given to mice (24 h post LPS treatment) and 30 min later mice were euthanized and the Evans Blue from lung and liver tissues was extracted using formamide. The levels of Evans Blue was determined by OD at 620 nm. […] To evaluate direct impact of UroA or UAS03 on endothelial barrier function, we used in vivo Miles assay to test blood vessel permeability. We used vascular endothelial growth factor (VEGF) as vasodilator. In this assay, C57BL/6 mice (n=3 per group) were given vehicle or UroA or UAS03 (20 mg/kg; oral gavage). After 3 h, Evans blue (100 μL of 1% solution) was administered i.v. followed by intra-dermal administration of VEGF (2.5 ng/mouse) or PBS (control). […]

Row | SMILES | serum IL-6 in AhR^−/− mice (AhR^−/− mice) | serum TNF-α in AhR^−/− mice (AhR^−/− mice) | shortening of colon lengths in AhR^−/− mice (AhR^−/− mice) | LPS-induced TNF-α levels in serum and BAL fluid (C57BL/6 mice [1]) | tissue accumulation of Evans Blue (lung and liver) (C57BL/6 mice [1]) | endothelial barrier leakage induced by VEGF (C57BL/6 mice [2]) | rapid body weight loss in AhR^−/− mice treated with TNBS (AhR^−/− mice)
1 | O=c1oc2cc(O)ccc2c2ccc(O)cc12 [UroA, 3,8-dihydroxy-6H-dibenzo[b,d]pyran-6-one] | did not appear to reduce IL-6 | slightly reduced | did not appear to protect | reduced LPS-induced TNF-α levels | reduced tissue accumulation of Evans Blue | protected from endothelial barrier leakage | –
2 | Oc1ccc2c(c1)COc1cc(O)ccc1-2 [UAS03, 6H-benzo[c]chromene-3,8-diol] | did not appear to reduce IL-6 | slightly reduced | did not appear to protect | reduced LPS-induced TNF-α levels | reduced tissue accumulation of Evans Blue | protected from endothelial barrier leakage | some protective role
